Measured values: patent publication US20250282794A1 (CURADEV PHARMA LTD, priority 2022, published 2025)
Structures can show the parent of a compound that is named as a salt.

target: recombinant full length HPK-1 enzyme (Homo sapiens (Human), UniProt Q92918); assay: HPK-1 biochemical enzyme assay (ADP-Glo kinase inhibition); settings: recombinant full length HPK-1 6.8 nM, 10 μM ATP, 12.5 μM MBP, 30 mins at 25° C.
Procedure: HPK-1 biochemical enzyme assay
Compound inhibitory potency was measured in an HPK-1 kinase inhibition assay. Briefly, recombinant full length HPK-1 enzyme (6.8 nM) was incubated with 10 μM ATP and 12.5 μM swine myelin basic protein (MBP) for 30 mins. at 25° C. in the presence of various concentrations of test compound or vehicle in 40 mM Tris.Cl pH7.4 buffer containing 20 mM MgCl2, 50 μM DTT and 0.1 mg/mL BSA. Reactions were quenched and reaction mixtures were then analyzed by an ADP-Glo kit which measures the formed ADP. The percent inhibition was calculated from the substrate conversion considering no enzyme control reactions for 100% inhibition and vehicle only reactions for 0% inhibition. The compounds were dissolved in DMSO and evaluated at 10 concentrations to determine an IC50 value.
In the below table A denotes an HPK-1 IC50≤10 nM, B denotes an HPK-1 IC50>10 nM but≤100 nM and C denotes an HPK-1 IC50>100 nM but≤1000 nM.

Sequence of recombinant full length HPK-1 enzyme (Q92918 whole entry, species assumed): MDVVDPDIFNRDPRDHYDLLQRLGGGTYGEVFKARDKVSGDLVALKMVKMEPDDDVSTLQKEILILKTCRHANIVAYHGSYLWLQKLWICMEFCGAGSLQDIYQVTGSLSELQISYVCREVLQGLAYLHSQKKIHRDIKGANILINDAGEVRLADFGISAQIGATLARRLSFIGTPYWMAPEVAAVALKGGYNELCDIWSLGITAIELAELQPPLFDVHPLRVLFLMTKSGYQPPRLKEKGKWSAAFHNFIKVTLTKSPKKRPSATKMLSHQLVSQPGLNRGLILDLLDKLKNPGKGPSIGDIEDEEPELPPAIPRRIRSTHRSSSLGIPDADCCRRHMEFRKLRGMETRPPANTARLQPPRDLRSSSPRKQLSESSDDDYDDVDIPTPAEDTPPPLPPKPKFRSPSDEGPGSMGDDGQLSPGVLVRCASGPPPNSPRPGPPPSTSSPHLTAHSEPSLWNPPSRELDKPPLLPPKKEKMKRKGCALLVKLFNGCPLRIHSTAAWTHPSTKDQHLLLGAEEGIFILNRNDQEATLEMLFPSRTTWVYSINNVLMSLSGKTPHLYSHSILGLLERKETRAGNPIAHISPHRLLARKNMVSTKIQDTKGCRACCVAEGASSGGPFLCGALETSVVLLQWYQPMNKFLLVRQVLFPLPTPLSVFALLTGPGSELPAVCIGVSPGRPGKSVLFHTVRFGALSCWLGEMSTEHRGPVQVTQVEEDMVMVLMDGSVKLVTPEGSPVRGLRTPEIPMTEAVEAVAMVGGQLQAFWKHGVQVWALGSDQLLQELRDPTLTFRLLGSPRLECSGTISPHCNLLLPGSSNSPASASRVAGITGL

Structure (SMILES)	IC50
Cc1c(Nc2cc[nH]c(=O)c2C(=O)Nc2ccc(N3CCN(C)CC3)cc2)cnc2c1N(C)CCO2 [Example 93, 4-((1,8-dimethyl-2,3-dihydro-1H-pyrido[2,3-b][1,4]oxazin-7-yl)amino)-N-(4-(4-methylpiperazin-1-yl)phenyl)-2-oxo-1,2-dihydropyridine-3-carboxamide]	0.01 to 0.1 µM
Cc1c(Nc2nc[nH]c(=O)c2C(=O)Nc2ccc(N3CCN(C)CC3)cc2)cnc2c1NCCO2 [Example 98, 4-((8-Methyl-2,3-dihydro-1H-pyrido[2,3-b][1,4]oxazin-7-yl)amino)-N-(4-(4-methylpiperazin-1-yl)phenyl)-6-oxo-1,6-dihydropyrimidine-5-carboxamide]	0.01 to 0.1 µM
CN1CCN(c2ccc(NC(=O)c3c(Nc4cnc5c(c4)NCCO5)cc[nH]c3=O)cc2)CC1 [Example 115, 4-((2,3-dihydro-1H-pyrido[2,3-b][1,4]oxazin-7-yl)amino)-N-(4-(4-methylpiperazin-1-yl)phenyl)-2-oxo-1,2-dihydropyridine-3-carboxamide.TFA]	0.01 to 0.1 µM
CN1CCN(c2ccc(NC(=O)c3c(Nc4cnc5c(c4)N(C)CCO5)cc[nH]c3=O)cc2)CC1 [Example 118, 4-((1-methyl-2,3-dihydro-1H-pyrido[2,3-b][1,4]oxazin-7-yl)amino)-N-(4-(4-methylpiperazin-1-yl)phenyl)-2-oxo-1,2-dihydropyridine-3-carboxamide]	0.01 to 0.1 µM
Cc1c(Nc2cc[nH]c(=O)c2C(=O)Nc2ccc(N3CCN(C)CC3)cc2)cnc2c1NCC(C)O2 (centres unmarked) [Example 125, 4-((3,8-dimethyl-2,3-dihydro-1H-pyrido[2,3-b][1,4]oxazin-7-yl)amino)-N-(4-(4-methylpiperazin-1-yl)phenyl)-2-oxo-1,2-dihydropyridine-3-carboxamide]	0.01 to 0.1 µM
Cc1c(Nc2cc[nH]c(=O)c2C(=O)Nc2ccc(N3CCN(C)CC3)cc2)cnc2c1NC(=O)CO2 [Example 126, 4-((8-methyl-2-oxo-2,3-dihydro-1H-pyrido[2,3-b][1,4]oxazin-7-yl)amino)-N-(4-(4-methylpiperazin-1-yl)phenyl)-2-oxo-1,2-dihydropyridine-3-carboxamide]	0.01 to 0.1 µM
Cc1c(Nc2cc[nH]c(=O)c2C(=O)Nc2ccc(-c3ccccn3)cc2)cnc2c1NCCO2 [Example 130, 4-((8-methyl-2,3-dihydro-1H-pyrido[2,3-b][1,4]oxazin-7-yl)amino)-2-oxo-N-(4-(pyridin-2-yl)phenyl)-1,2-dihydropyridine-3-carboxamide]	0.01 to 0.1 µM
COc1c(Nc2cc[nH]c(=O)c2C(=O)Nc2ccc(N3CCN(C)CC3)cc2)cnc2c1NCCO2 [Example 132, 4-((8-Methoxy-2,3-dihydro-1H-pyrido[2,3-b][1,4]oxazin-7-yl)amino)-N-(4-(4-methylpiperazin-1-yl)phenyl)-2-oxo-1,2-dihydropyridine-3-carboxamide]	0.01 to 0.1 µM
Cc1c(Nc2cc[nH]c(=O)c2C(=O)Nc2ccc(C3CCOCC3)cc2)cnc2c1NCCO2 [Example 133, 4-((8-methyl-2,3-dihydro-1H-pyrido[2,3-b][1,4]oxazin-7-yl)amino)-2-oxo-N-(4-(tetrahydro-2H-pyran-4-yl)phenyl)-1,2-dihydropyridine-3-carboxamide]	0.01 to 0.1 µM
Cc1c(Nc2cc[nH]c(=O)c2C(=O)Nc2ccc(N3CCN(C(=O)N(C)C)CC3)cc2)cnc2c1NCCO2 [Example 137, N,N-Dimethyl-4-(4-(4-((8-methyl-2,3-dihydro-1H-pyrido[2,3-b][1,4]oxazin-7-yl)amino)-2-oxo-1,2-dihydropyridine-3-carboxamido)phenyl) piperazine-1-carboxamide]	≤ 0.01 µM
COCCN1CCN(c2ccc(NC(=O)c3c(Nc4cnc5c(c4C)NCCO5)cc[nH]c3=O)cc2)CC1 [Example 140, N-(4-(4-(2-methoxyethyl)piperazin-1-yl)phenyl)-4-((8-methyl-2,3-dihydro-1H-pyrido[2,3-b][1,4]oxazin-7-yl)amino)-2-oxo-1,2-dihydropyridine-3-carboxamide]	≤ 0.01 µM
Cc1c(Nc2cc[nH]c(=O)c2C(=O)Nc2ccc(N3CCN(C(=O)N4CCC(F)(F)C4)CC3)cc2)cnc2c1NCCO2 [Example 143, N-(4-(4-(3,3-difluoropyrrolidine-1-carbonyl)piperazin-1-yl)phenyl)-4-((8-methyl-2,3-dihydro-1H-pyrido[2,3-b][1,4]oxazin-7-yl)amino)-2-oxo-1,2-dihydropyridine-3-carboxamide]	≤ 0.01 µM
Cc1c(Nc2cc[nH]c(=O)c2C(=O)Nc2ccc(-c3cn[nH]c3)cc2)cnc2c1NCCO2 [Example 144, N-(4-(1H-pyrazol-4-yl)phenyl)-4-((8-methyl-2,3-dihydro-1H-pyrido[2,3-b][1,4]oxazin-7-yl)amino)-2-oxo-1,2-dihydropyridine-3-carboxamide]	0.01 to 0.1 µM
Cc1c(Nc2cc[nH]c(=O)c2C(=O)Nc2ccc(-c3cc[nH]n3)cc2)cnc2c1NCCO2 [Example 145, N-(4-(1H-pyrazol-3-yl)phenyl)-4-((8-methyl-2,3-dihydro-1H-pyrido[2,3-b][1,4]oxazin-7-yl)amino)-2-oxo-1,2-dihydropyridine-3-carboxamide]	0.01 to 0.1 µM
Cc1c(Nc2cc[nH]c(=O)c2C(=O)Nc2ccc(-c3cnco3)cc2)cnc2c1NCCO2 [Example 146, 4-((8-methyl-2,3-dihydro-1H-pyrido[2,3-b][1,4]oxazin-7-yl)amino)-N-(4-(oxazol-5-yl)phenyl)-2-oxo-1,2-dihydropyridine-3-carboxamide]	0.01 to 0.1 µM
Cc1c(Nc2cc[nH]c(=O)c2C(=O)Nc2ccc(N3CCN(C4CCCC4)CC3)cc2)cnc2c1NCCO2 [Example 147, N-(4-(4-cyclopentylpiperazin-1-yl)phenyl)-4-((8-methyl-2,3-dihydro-1H-pyrido[2,3-b][1,4]oxazin-7-yl)amino)-2-oxo-1,2-dihydropyridine-3-carboxamide]	≤ 0.01 µM

Other lines, results leading:

IC50	Structure (SMILES)
≤ 0.01 µM	Cc1c(Nc2cc[nH]c(=O)c2C(=O)Nc2ccc(N3CCN(C)CC3)cc2)cnc2c1NCCO2 [Example 45, 4-((8-Methyl-2,3-dihydro-1H-pyrido[2,3-b][1,4]oxazin-7-yl)amino)-N-(4-(4-methylpiperazin-1-yl)phenyl)-2-oxo-1,2-dihydropyridine-3-carboxamide]
≤ 0.01 µM	Cc1c(Nc2cc[nH]c(=O)c2C(=O)Nc2ccc(N3CCN(C)CC3)c(F)c2)cnc2c1NCCO2 [Example 96, N-(3-fluoro-4-(4-methylpiperazin-1-yl)phenyl)-4-((8-methyl-2,3-dihydro-1H-pyrido[2,3-b][1,4]oxazin-7-yl)amino)-2-oxo-1,2-dihydropyridine-3-carboxamide]
≤ 0.01 µM	Cc1c(Nc2cc[nH]c(=O)c2C(=O)Nc2ccc(C3CCN(C)CC3)cc2)cnc2c1NCCO2 [Example 97, 4-((8-methyl-2,3-dihydro-1H-pyrido[2,3-b][1,4]oxazin-7-yl)amino)-N-(4-(1-methylpiperidin-4-yl)phenyl)-2-oxo-1,2-dihydropyridine-3-carboxamide]
≤ 0.01 µM	Cc1c(Nc2cc[nH]c(=O)c2C(=O)Nc2ccc(N3CCN(CCO)CC3)cc2)cnc2c1NCCO2 [Example 105, N-(4-(4-(2-hydroxyethyl)piperazin-1-yl)phenyl)-4-((8-methyl-2,3-dihydro-1H-pyrido[2,3-b][1,4]oxazin-7-yl)amino)-2-oxo-1,2-dihydropyridine-3-carboxamide]
≤ 0.01 µM	Cc1c(Nc2cc[nH]c(=O)c2C(=O)Nc2ccc(N3CCN(C(C)C)CC3)cc2)cnc2c1NCCO2 [Example 106, N-(4-(4-isopropylpiperazin-1-yl)phenyl)-4-((8-methyl-2,3-dihydro-1H-pyrido[2,3-b][1,4]oxazin-7-yl)amino)-2-oxo-1,2-dihydropyridine-3-carboxamide]
≤ 0.01 µM	Cc1c(Nc2cc[nH]c(=O)c2C(=O)Nc2ccc(N3CCN(C(C)C)CC3)c(F)c2)cnc2c1NCCO2 [Example 134, N-(3-fluoro-4-(4-isopropylpiperazin-1-yl)phenyl)-4-((8-methyl-2,3-dihydro-1H-pyrido[2,3-b][1,4]oxazin-7-yl)amino)-2-oxo-1,2-dihydropyridine-3-carboxamide]
≤ 0.01 µM	CCN1CCN(c2ccc(NC(=O)c3c(Nc4cnc5c(c4C)NCCO5)cc[nH]c3=O)cc2F)CC1 [Example 135, N-(4-(4-ethylpiperazin-1-yl)-3-fluorophenyl)-4-((8-methyl-2,3-dihydro-1H-pyrido[2,3-b][1,4]oxazin-7-yl)amino)-2-oxo-1,2-dihydropyridine-3-carboxamide]
≤ 0.01 µM	CCN1CCN(c2ccc(NC(=O)c3c(Nc4cnc5c(c4C)NCCO5)cc[nH]c3=O)cc2)CC1 [Example 136, N-(4-(4-ethylpiperazin-1-yl)phenyl)-4-((8-methyl-2,3-dihydro-1H-pyrido[2,3-b][1,4]oxazin-7-yl)amino)-2-oxo-1,2-dihydropyridine-3-carboxamide]
≤ 0.01 µM	Cc1c(Nc2cc[nH]c(=O)c2C(=O)Nc2ccc(N3CCS(=O)(=O)CC3)cc2)cnc2c1NCCO2 [Example 138, N-(4-(1,1-dioxidothiomorpholino)phenyl)-4-((8-methyl-2,3-dihydro-1H-pyrido[2,3-b][1,4]oxazin-7-yl)amino)-2-oxo-1,2-dihydropyridine-3-carboxamide]
≤ 0.01 µM	Cc1c(Nc2cc[nH]c(=O)c2C(=O)Nc2ccc(N3CCNCC3)cc2)cnc2c1NCCO2 [Example 139, 4-((8-methyl-2,3-dihydro-1H-pyrido[2,3-b][1,4]oxazin-7-yl)amino)-2-oxo-N-(4-(piperazin-1-yl)phenyl)-1,2-dihydropyridine-3-carboxamide]
